Experimental data reported in the NIST ThermoML archive (doi:10.1016/j.jct.2016.07.008).
± gives the expanded uncertainty stated by the source.

Assay: xn = mol fraction of the nth substance listed
Conditions: Liquid, Vibrating wire viscometry

CC(C)CC(C)(C)C [2,2,4-trimethylpentane] + CCCCO
viscosity [mPa·s]
Conditions	x2 = 0.3002	x2 = 0.5003	x2 = 0.8
293.15 K, 100 kPa	0.651 ± 0.011	0.8986 ± 0.015	1.777 ± 0.029
293.15 K, 1000 kPa	0.6579 ± 0.012	0.9064 ± 0.015	1.805 ± 0.029
293.15 K, 5000 kPa	0.6912 ± 0.012	0.9556 ± 0.016	1.837 ± 0.03
293.15 K, 10000 kPa	0.7318 ± 0.013	0.9979 ± 0.017	1.949 ± 0.031
293.15 K, 20000 kPa	0.8168 ± 0.014	1.14 ± 0.019	2.161 ± 0.035
293.15 K, 30000 kPa	0.9098 ± 0.015	1.274 ± 0.021	2.353 ± 0.038
293.15 K, 40000 kPa	1.004 ± 0.017	1.415 ± 0.023	2.578 ± 0.041
293.15 K, 50000 kPa	1.108 ± 0.018	1.562 ± 0.025	2.826 ± 0.045
293.15 K, 60000 kPa	1.215 ± 0.02	1.739 ± 0.028	3.038 ± 0.048
293.15 K, 70000 kPa	1.324 ± 0.022	1.895 ± 0.031	3.308 ± 0.053
293.15 K, 80000 kPa	1.433 ± 0.023	2.055 ± 0.033	3.537 ± 0.056
293.15 K, 100000 kPa	1.679 ± 0.027	2.387 ± 0.038	4.066 ± 0.064
293.15 K, 120000 kPa	1.942 ± 0.031	2.735 ± 0.044	4.653 ± 0.074
293.15 K, 140000 kPa	2.211 ± 0.036	3.099 ± 0.049	5.322 ± 0.084
313.15 K, 100 kPa	0.4938 ± 0.0092	0.6427 ± 0.011	1.151 ± 0.019
313.15 K, 1000 kPa	0.4951 ± 0.0092	0.6458 ± 0.011	1.161 ± 0.019
313.15 K, 5000 kPa	0.5303 ± 0.0097	0.6742 ± 0.012	1.216 ± 0.02
313.15 K, 10000 kPa	0.5681 ± 0.01	0.7086 ± 0.012	1.279 ± 0.021
313.15 K, 20000 kPa	0.6344 ± 0.011	0.8024 ± 0.014	1.402 ± 0.023
313.15 K, 30000 kPa	0.7073 ± 0.012	0.8924 ± 0.015	1.54 ± 0.025
313.15 K, 40000 kPa	0.7728 ± 0.013	0.9864 ± 0.017	1.674 ± 0.027
313.15 K, 50000 kPa	0.8419 ± 0.014	1.084 ± 0.018	1.825 ± 0.029
313.15 K, 60000 kPa	0.9375 ± 0.016	1.186 ± 0.02	1.972 ± 0.032
313.15 K, 70000 kPa	1.005 ± 0.017	1.292 ± 0.021	2.114 ± 0.034
313.15 K, 80000 kPa	1.081 ± 0.018	1.402 ± 0.023	2.283 ± 0.037
313.15 K, 100000 kPa	1.235 ± 0.02	1.634 ± 0.027	2.619 ± 0.042
313.15 K, 120000 kPa	1.413 ± 0.023	1.882 ± 0.03	2.954 ± 0.047
313.15 K, 140000 kPa	1.587 ± 0.026	2.146 ± 0.034	3.328 ± 0.053
